pIC50: −log10 of the molar value.
Tested on: TNFα released by PBMCs
Assay: Inhibition of TNFα release from monocytes (PBMC) stimulated by LPS, ELISA
Type: cell-based
Conditions: Homo sapiens, LPS 0.1 μg/mL, 20 hr incubation; for pIC50: concentration giving 50% TNFα inhibition; for inhibition at 3 µM: test concentration 3.0 μM; for inhibition at 3 µM / inhibition at 100 µM: read-out: Degree of inhibition (%); for inhibition at 100 µM: test concentration 100 μM
Experimental: Cytokine TNFα released by PBMCs in the peripheral blood after […] (LPS) stimulation in vitro was studied. The followings are experimental protocols for studying cytokine TNFα released by PBMCs, which are inhibited by compounds of the invention.
PBMCs were obtained from blood of at least three volunteers after heparin treatment, using gradient extraction. PBMCs were collected and washed three times with a 1640 medium (10% calf serum, 2 mM L-glutamine, […], 50 μg/mL streptomycin, 50 U/mL penicillin), then placed into wells of a 24-well cell culture plate. The concentration was adjusted to 1×10^6 cells/mL with 1640 culture medium. […] The resultant solution was added to the cell culture medium and the culture plate was placed in a CO2 incubator (5% CO2, 90% humidity) for 1 hour. Then, LPS (Sigma) was added and its concentration was adjusted to 0.1 μg/mL (except for the control).
After a 20 hr incubation period, the content of TNFα in supernatant of the above PBMC culture medium was assayed by ELISA kit (America Genzyme Co), using standard method. The measured value of the control well (not treated with active components), and the measured value of the test wells containing the test compounds was used to calculate the TNFα inhibition rate. The concentration of compounds giving a 50% TNFα inhibition (IC50 value) was calculated using nonlinear regression analysis. Each concentration was determined twice and an average value was calculated.

## CC1(N2C(=O)c3csc(N)c3C2=O)CCC(=O)NC1=O (stereo not shown) [Example 27, 1-amino-5-(3-methyl-2,6-dioxopiperidin-3-yl)-5H-thieno(3,4-c)pyrrole-4,6-dione]
  pIC50: 7.30
  inhibition at 3 µM: 84%

## COC(=O)CN1C(=O)CCC(N2C(=O)c3cscc3C2=O)C1=O (stereo not shown) [Example 15, 5-(1-methoxycarbonylmethyl-2,6-dioxopiperidin-3-yl)-5H-thieno(3,4-c)pyrrole-4,6-dione]
  inhibition at 100 µM: 18%

## O=C1CCC(N2C(=O)c3csc([N+](=O)[O-])c3C2=O)C(=O)N1 (stereo not shown) [Example 18, 1-nitro-5-(2,6-dioxopiperidin-3-yl)-5H-thieno(3,4-c)pyrrole-4,6-dione]
  inhibition at 100 µM: 28%

## CN1C(=O)CCC(N2C(=O)c3cscc3C2=O)C1=O (stereo not shown) [Example 13, 5-(1-methyl-2,6-dioxopiperidin-3-yl)-5H-thieno(3,4-c)pyrrole-4,6-dione]
  inhibition at 100 µM: 20%

## CC(=O)Nc1scc2c1C(=O)N(C1CCC(=O)NC1=O)C2=O (stereo not shown) [Example 24, 1-acetamido-5-(2,6-dioxopiperidin-3-yl)-5H-thieno(3,4-c)pyrrole-4,6-dione]
  inhibition at 3 µM: 48%

## Nc1scc2c1C(=O)N(C1CCC(=O)NC1=O)C2=O (stereo not shown) [Example 19, 1-amino-5-(2,6-dioxopiperidin-3-yl)-5H-thieno(3,4-c)pyrrole-4,6-dione]
  pIC50: 8.22
  inhibition at 3 µM: 95%

## CN1C(=O)CCC(N2C(=O)c3csc(N)c3C2=O)C1=O (stereo not shown) [Example 31, 1-amino-5-(1-methyl-2,6-dioxopiperidin-3-yl)-5H-thieno(3,4-c)pyrrole-4,6-dione]
  pIC50: 6.46
  inhibition at 3 µM: 71%

## CNc1scc2c1C(=O)N(C1CCC(=O)NC1=O)C2=O (stereo not shown) [Example 22, 1-methylamino-5-(2,6-dioxopiperidin-3-yl)-5H-thieno(3,4-c)pyrrole-4,6-dione]
  pIC50: 6.30
  inhibition at 3 µM: 62%

## O=C1CCC(N2C(=O)c3ccccc3C2=O)C(=O)N1 (stereo not shown) [Thalidomide, reference compound]
  pIC50: 3.74
  inhibition at 100 µM: 22%

## COCCN1C(=O)CCC(N2C(=O)c3cscc3C2=O)C1=O (stereo not shown) [Example 16, 5-(1-(2-methoxyethyl)-2,6-dioxopiperidin-3-yl)-5H-thieno(3,4-c)pyrrole-4,6-dione]
  inhibition at 100 µM: 28%

## O=C1CCC(N2C(=O)c3cscc3C2=O)C(=O)N1 (stereo not shown) [Example 10, 5-(2,6-dioxopiperidin-3-yl)-5H-thieno(3,4-c)pyrrole-4,6-dione]
  inhibition at 100 µM: 32%

— patent publication US8183260B2, “5H-thioeno(3,4-c)pyrrole-4,6-dione derivatives and their use as tumor necrosis factor inhibitors” (Tianjin Hemay Bio-Tech Co., Ltd., priority 2005, dated 2012)
